Assays:
[1] = target: T1, human orexin 1 receptor (Homo sapiens, UniProt O43613); assay: Radioligand binding assay ([3H]-SB649868 competition), human orexin 1 receptor; conditions: radioligand [3H]-SB649868; read-out: Binding hOx1R Kd
T1 construct: expressed in transfected cells
T1 sequence (O43613 1-425): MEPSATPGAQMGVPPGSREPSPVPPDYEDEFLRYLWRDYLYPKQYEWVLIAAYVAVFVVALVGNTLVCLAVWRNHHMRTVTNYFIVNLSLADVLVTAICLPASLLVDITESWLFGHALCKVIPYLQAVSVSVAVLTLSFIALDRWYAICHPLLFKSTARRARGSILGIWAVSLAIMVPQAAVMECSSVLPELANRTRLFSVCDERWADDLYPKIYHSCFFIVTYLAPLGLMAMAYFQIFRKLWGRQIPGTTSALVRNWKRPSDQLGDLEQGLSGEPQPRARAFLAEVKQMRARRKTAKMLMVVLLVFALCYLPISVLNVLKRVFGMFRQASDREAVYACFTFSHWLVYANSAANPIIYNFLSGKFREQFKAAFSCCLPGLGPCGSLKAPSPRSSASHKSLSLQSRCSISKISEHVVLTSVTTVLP
Outline: (§1)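 Membranes from CHO or HEK cells expressing the human receptor were incubated 1 h at room temperature with about 1 nM [3H]-SB649868 and test compound in HEPES pH 7.5 buffer with BSA, MgCl2, CaCl2 and tween. Non-specific binding defined with 10 μM almorexant; filtration read-out, values reported as Kd.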

[2] = target: T2, human orexin 2 receptor (Homo sapiens, UniProt O43614); assay: Radioligand binding assay ([3H]-SB649868 competition), human orexin 2 receptor; conditions: radioligand [3H]-SB649868; read-out: Binding hOx2R Kd
T2 construct: expressed in transfected cells
T2 sequence (O43614 1-444): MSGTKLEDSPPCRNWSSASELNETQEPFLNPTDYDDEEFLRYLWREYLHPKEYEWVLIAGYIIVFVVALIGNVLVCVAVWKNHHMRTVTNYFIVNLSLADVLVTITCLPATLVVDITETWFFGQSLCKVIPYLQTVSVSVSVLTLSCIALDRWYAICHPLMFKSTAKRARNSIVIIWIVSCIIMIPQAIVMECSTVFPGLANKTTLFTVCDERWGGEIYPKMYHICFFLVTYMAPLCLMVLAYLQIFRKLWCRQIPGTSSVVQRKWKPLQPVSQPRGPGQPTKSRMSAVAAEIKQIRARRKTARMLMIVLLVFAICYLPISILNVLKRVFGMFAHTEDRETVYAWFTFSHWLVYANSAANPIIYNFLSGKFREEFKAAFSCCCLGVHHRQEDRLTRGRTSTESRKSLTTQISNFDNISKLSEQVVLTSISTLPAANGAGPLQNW
Outline: as §1

[3] = target: T1, human orexin 1 receptor; assay: Calcium accumulation in cells (FLIPR), antagonism of orexin A, human orexin 1 receptor; format: cell-based; conditions: for Ki: calcium accumulation, antagonism of orexin A, Cheng-Prusoff corrected, read-out: FLIPR hOx1R Ki
[4] = target: T2, human orexin 2 receptor; assay: Calcium accumulation in cells (FLIPR), antagonism of orexin A, human orexin 2 receptor; format: cell-based; conditions: calcium accumulation, antagonism of orexin A, Cheng-Prusoff corrected; read-out: FLIPR hOx2R Ki

Structure (SMILES)	Kd [1] [nM]	Kd [2] [nM]	Ki [3] [nM]	Ki [4] [nM]	inhibition at 10 µM ([3]; measured at a concentration of 10 μM of compound, read-out: FLIPR hOx1R % inhibition) [%]
Cc1ccnc(N2CCC3(CC2)OCCN(Cc2c[nH]c4ccccc24)C3=O)n1 [Example 2.8, 4-((1H-Indol-3-yl)methyl)-9-(4-methylpyrimidin-2-yl)-1-oxa-4,9-diazaspiro[5.5]undecan-5-one]	5610	78	2460	105	–
Cc1cc(C)nc(N2CCC3(CC2)OCCN(Cc2ccccc2-c2nc(C)no2)C3=O)n1 [Example 2.10, 9-(4,6-Dimethylpyrimidin-2-yl)-4-(2-(3-methyl-1,2,4-oxadiazol-5-yl)benzyl)-1-oxa-4,9-diazaspiro[5.5]undecan-5-one]	4610	144	–	72	35
Cc1cc(C)nc(N2CCC3(CC2)OCCN(Cc2nn(C)cc2-c2ccccc2)C3=O)n1 [Example 2.11, 9-(4,6-Dimethylpyrimidin-2-yl)-4-((1-methyl-4-phenyl-1H-pyrazol-3-yl)methyl)-1-oxa-4,9-diazaspiro[5.5]undecan-5-one]	3180	229	2320	75	–
Cc1cc(C)nc(N2CCC3(CC2)OCCN(Cc2n[nH]cc2-c2ccccc2)C3=O)n1 [Example 2.13, 9-(4,6-Dimethylpyrimidin-2-yl)-4-((4-phenyl-1H-pyrazol-3-yl)methyl)-1-oxa-4,9-diazaspiro[5.5]undecan-5-one]	1560	143	1500	38	–
COc1cccc(-c2n[nH]nc2CN2CCOC3(CCN(c4nc(C)cc(C)n4)CC3)C2=O)c1 [Example 2.17, 9-(4,6-Dimethylpyrimidin-2-yl)-4-((5-(3-methoxyphenyl)-2H-1,2,3-triazol-4-yl)methyl)-1-oxa-4,9-diazaspiro[5.5]undecan-5-one]	363	16	220	1	–
COc1cc(C)nc(N2CCC3(CC2)OCCN(Cc2c[nH]c4ccccc24)C3=O)n1 [Example 2.18, 4-((1H-Indol-3-yl)methyl)-9-(4-methoxy-6-methylpyrimidin-2-yl)-1-oxa-4,9-diazaspiro[5.5]undecan-5-one]	625	23	383	4	–
COc1cc(C)nc(N2CCC3(CC2)OCCN(Cc2c[nH]c4ncccc24)C3=O)n1 [Example 2.19, 4-((1H-Pyrrolo[2,3-b]pyridin-3-yl)methyl)-9-(4-methoxy-6-methylpyrimidin-2-yl)-1-oxa-4,9-diazaspiro[5.5]undecan-5-one]	3520	184	1490	35	–
COc1cccc(-c2ocnc2CN2CCOC3(CCN(c4nc(C)cc(OC)n4)CC3)C2=O)c1 [Example 2.20, 9-(4-Methoxy-6-methylpyrimidin-2-yl)-4-((5-(3-methoxyphenyl)oxazol-4-yl)methyl)-1-oxa-4,9-diazaspiro[5.5]undecan-5-one]	57	7	43	2	–
CCc1cc(C)nc(N2CCC3(CC2)OCCN(Cc2c[nH]c4ccccc24)C3=O)n1 [Example 2.23, 4-((1H-indol-3-yl)methyl)-9-(4-ethyl-6-methylpyrimidin-2-yl)-1-oxa-4,9-diazaspiro[5.5]undecan-5-one]	1570	68	582	37	–
O=C1N(Cc2c[nH]c3ccccc23)CCC12CCN(c1cnc3ccccc3n1)CC2 [Example 3.2, 2-((1H-Indol-3-yl)methyl)-8-(quinoxalin-2-yl)-2,8-diazaspiro[4.5]decan-1-one]	920	121	1060	41	–
COc1cc(C)nc(N2CCC3(CCN(Cc4ccccc4-c4nc(C)no4)C3=O)CC2)n1 [Example 3.20, 8-(4-Methoxy-6-methyl-pyrimidin-2-yl)-2-[2-(3-methyl-[1,2,4]oxadiazol-5-yl)-benzyl]-2,8-diaza-spiro[4.5]decan-1-one]	7670	328	1640	43	–
COc1cc(C)nc(N2CCC3(CCN(Cc4nn(C)nc4-c4ccccc4)C3=O)C2)n1 (centres unmarked) [Example 5.43, 7-(4-methoxy-6-methylpyrimidin-2-yl)-2-((2-methyl-5-phenyl-2H-1,2,3-triazol-4-yl)methyl)-2,7-diazaspiro[4.4]nonan-1-one]	339	118	421	29	–
COc1cc(C)nc(N2CCC3(CCN(Cc4nn(C)nc4-c4cccc(C)c4)C3=O)C2)n1 (centres unmarked) [Example 5.44, 7-(4-methoxy-6-methylpyrimidin-2-yl)-2-((2-methyl-5-(m-tolyl)-2H-1,2,3-triazol-4-yl)methyl)-2,7-diazaspiro[4.4]nonan-1-one]	106	20	68	3.4	–
COc1cccc(-c2nn(C)nc2CN2CCC3(CCN(c4nc(C)cc(OC)n4)C3)C2=O)c1 (centres unmarked) [Example 5.45, 7-(4-methoxy-6-methylpyrimidin-2-yl)-2-((5-(3-methoxyphenyl)-2-methyl-2H-1,2,3-triazol-4-yl)methyl)-2,7-diazaspiro[4.4]nonan-1-one]	97	21	29	2.8	–
CN(C)c1cc(C(F)(F)F)nc(N2CCC3(CCN(Cc4c[nH]c5ccccc45)C3=O)C2)n1 (centres unmarked) [Example 5.47, 2-((1H-indol-3-yl)methyl)-7-(4-(dimethylamino)-6-(trifluoromethyl)pyrimidin-2-yl)-2,7-diazaspiro[4.4]nonan-1-one]	1030	518	193	97	–
COc1cc(C)nc(N2CCC3(CCCN(Cc4c[nH]c5ccccc45)C3=O)C2)n1 (centres unmarked) [Example 7.1, 7-((1H-Indol-3-yl)methyl)-2-(4-methoxy-6-methylpyrimidin-2-yl)-2,7-diazaspiro[4.5]decan-6-one]	14	13	31	10	–
COc1ccnc(N2CCC3(CCCN(Cc4c[nH]c5ccccc45)C3=O)C2)n1 (centres unmarked) [Example 7.4, 7-((1H-Indol-3-yl)methyl)-2-(4-methoxypyrimidin-2-yl)-2,7-diazaspiro[4.5]decan-6-one]	201	152	317	59	–
COc1cccc(-c2n[nH]nc2CN2CCCC3(CCN(c4nccc(OC)n4)C3)C2=O)c1 (centres unmarked) [Example 7.6, 7-((5-(3-Methoxyphenyl)-2H-1,2,3-triazol-4-yl)methyl)-2-(4-methoxypyrimidin-2-yl)-2,7-diazaspiro[4.5]decan-6-one]	187	170	189	65	–
Cc1ccnc(N2CCC3(CCCN(Cc4c[nH]c5ccccc45)C3=O)C2)n1 (centres unmarked) [Example 7.11, 7-((1H-indol-3-yl)methyl)-2-(4-methylpyrimidin-2-yl)-2,7-diazaspiro[4.5]decan-6-one]	89	73	304	38	–
COc1cc(C)nc(N2CCC3(CCCN(Cc4n[nH]c5ccccc45)C3=O)C2)n1 (centres unmarked) [Example 7.12, 7-((1H-indazol-3-yl)methyl)-2-(4-methoxy-6-methylpyrimidin-2-yl)-2,7-diazaspiro[4.5]decan-6-one]	173	138	309	48	–
COc1cc(C)nc(N2CCC3(CCCN(Cc4ccccc4-c4nc(C)no4)C3=O)C2)n1 (centres unmarked) [Example 7.14, 2-(4-methoxy-6-methylpyrimidin-2-yl)-7-(2-(3-methyl-1,2,4-oxadiazol-5-yl)benzyl)-2,7-diazaspiro[4.5]decan-6-one]	171	210	174	92	–
O=C1N(Cc2c[nH]c3ccccc23)CCCC12CCN(c1nc3ccccc3[nH]1)C2 (centres unmarked) [Example 7.15, 7-((1H-indol-3-yl)methyl)-2-(1H-benzo[d]imidazol-2-yl)-2,7-diazaspiro[4.5]decan-6-one]	43	28	474	68	–
O=C1CCC2(CCN(c3cnc4ccccc4n3)CC2)N1Cc1cccc2[nH]ccc12 [Example 8.1]	148	32	78	2.1	–
